“Also recorded” adds a separate entry of the source.
Experiments:
[1] = tested on: claudin-5 mRNA; experiment: Real-time RT-PCR analysis of claudin-5 mRNA in brain post-injection of siRNA; format: in vivo, C57/Bl6 mice
Protocol: Rapid high pressure, high volume tail vein injections were carried out (Kiang et al., 2005). Wild type C57/Bl6 mice of weight 20-30 g were individually restrained inside a 60-ml volume plastic tube. The protruding tail was warmed for 5 minutes prior to injection under a 60-W lamp and the tail vein clearly visualized by illumination from below. 20 micrograms of targeting siRNA, or non-targeting siRNA made up with PBS to a volume in mls of 10% of the body weight in grams or PBS alone, was injected into the tail vein at a rate of 1 ml/sec using a 26-gauge (26 G 3/8) needle. After 24, 48, 72 hours and 1 week, protein was isolated from total brain tissue by crushing brains to a fine powder in liquid N2 and subsequently using lysis buffer containing 62.5 mM Tris, 2% SDS, 10 mM Dithiothreitol, 10 μl protease inhibitor cocktail/100 ml (Sigma Aldrich, Ireland). The homogenate was centrifuged at 10,000 g for 20 mins @4° C., and the supernatant was removed for claudin-5 analysis.
At the same time points post-delivery of siRNA total RNA was isolated from brains using Trizol (Invitrogen). RNA was then treated with RNase-free DNase (Promega, Madison, Wis., USA) and then chloroform extracted, isopropanol precipitated, washed with 75% RNA grade ethanol and resuspended in 100 μl RNase-free water.
RNA was analyzed by real-time RT-PCR using a Quantitect Sybr Green Kit as outlined by the manufacturer (Qiagen-Xeragon) on a LightCycler (Roche Diagnostics, Lewes, UK) under the following conditions: 50° C. for 20 min; 95° C. for 15 min; 38 cycles of 94° C. for 15 s, 57° C. for 20 s, 72° C. for 10 s.
cDNA fragments were amplified from claudin-5 and β-actin for each RNA sample a minimum of four times. Results were expressed as a percentage of those from the similarly standardized appropriate control experiment. The reciprocal values compared to the non-targeting control siRNA gave percentage suppression of claudin-5 expression. Mean values, standard deviations, and pooled t tests were calculated using GraphPad Prism©. Differences were deemed statistically significant at P<0.05.

[2] = MRI water diffusion in the brains of mice after claudin-5 siRNA; format: in vivo; details: 24 and 48 hours post injection
Protocol: 24 and 48 hours post-delivery of siRNA targeting claudin-5 or a non-targeting siRNA mice were anaesthetised with isofluorane, and physiologically monitored (ECG, respiration and temperature) and placed on an MRI-compatible support cradle, which has a built-in system for maintaining the animal's body temperature at 37° C. The cradle was then positioned within the MRI scanner. Accurate positioning is ensured by acquiring an initial rapid pilot image, which is then used to ensure the correct geometry is scanned in all subsequent MRI experiments. Upon insertion into the MRI scanner, high resolution anatomical images of the brain were acquired (100 μm in-plane and 500 μm through-plane spatial resolution). Water diffusion scans were subsequently undertaken. Using a standard diffusion imaging sequence such as a spin-echo EPI imaging sequence with diffusion gradients (Stejskal-Taner gradients) in order to acquire images over a large range of b-values. In this way, the effect of the technique in the vascular compartment and in the brain parenchymal tissue can be compared. All experiments were carried out on a 7 T Brüker small-bore system with 400 mT/m maximum gradient strength. Image processing and calculation of ADCs was carried out using IDL.

[3] = tested on: claudin-5; experiment: Claudin-5 expression in retina after siRNA injection (Western blot, retinal flatmounts); format: in vivo, mice
[4] = tested on: endothelial cells of heart, liver, lung and kidney; experiment: Endothelial cell morphology of major organs (Griffonia simplicifolia-isolectin B4 staining); format: in vivo, mouse; details: all time points; vs control groups
Protocol: Following hydrodynamic injection of siRNA targeting claudin-5, cryosections were prepared of all the major organs, the heart, liver, lung and kidney. Sections were incubated overnight at 4° C. with HRP-conjugated Griffonia simplicifolia-isolectin B4 in order to stain the endothelial cells of organs.

[5] = tested on: iBRB; experiment: MRI analysis of Gd-DTPA diffusion across the iBRB (eye); format: in vivo, mice; details: 48 hours post-injection
[6] = tested on: BBB; experiment: BBB permeability to Hoechst H33342 (562 Da) and FD-4 (4,400 Da) co-perfusion, brain sections; format: in vivo, C57/Bl6 mice; details: for extravasation of FD-4 (4,400 Da) into brain parenchyma: any time point following siRNA injection
Protocol: In order to determine the permeability of brain and retinal microvessels to a molecule of 562 Daltons, mice were perfused through the left ventricle with 500 μl/g body weight of PBS containing 100 μg/ml Hoechst stain H33342 (Sigma Aldrich, Ireland) and 1 mg/ml FITC-Dextran-4 (FD-4) 24, 48, 72 hours and 1 week post-hydrodynamic delivery of claudin-5 siRNA. Following perfusion, the whole brain was dissected and placed in 4% PFA pH 7.4 overnight at 4° C. and subsequently washed 4×15 mins with PBS. Brains were then embedded in 4% agarose and 50 μm sections were cut using a Vibratome®. Whole eyes were removed and fixed with 4% PFA, and following washing with PBS and cryoprotection using a sucrose gradient, 12 μm cryosections were cut using a cryostat. Following analysis of retinal cryosections with an Olympus FluoView™ FV1000 Confocal microscope, images were oriented correctly using Adobe® Photoshop®.

[7] = tested on: BBB; experiment: Assessment of BBB integrity by perfusion of biotinylated tracer EZ-Link Sulfo-NHS-Biotin (443 Da); format: in vivo, C57/Bl6 mice
Protocol: Following RNAi-mediated ablation of transcripts encoding claudin-5, a tracer molecule was used to determine the extent to which the TJ's of the BBB had been affected. The biotinylated reagent EZ-Link™ Sulfo-NHS-Biotin (Pierce) (1 ml/g body weight of 2 mg/ml EZ-Link™ Sulfo-NHS-Biotin, 443 Da) was perfused for 5 minutes through the left ventricle of mice 24, 48, 72 hours and 1 week post-hydrodynamic delivery of claudin-5 siRNA. Following perfusion with the tracer molecule, the whole brain was dissected and placed in 4% PFA pH 7.4 overnight at 4° C. and subsequently washed 4×15 mins with PBS. Following cryoprotection with sucrose, frozen sections were cut on a cryostat at −20° C. and incubated with streptavidin conjugated to the fluorescent probe FITC. This allowed for the assessment of leakage of the biotinylated reagent of molecular weight 443 Da from the microvessels of the brain. All sections were counterstained with 4′,6-diamidine-2-phenylindole-dihydrochloride (DAPI; Sigma Aldrich, Ireland) for 30 seconds at a dilution of 1:5000 of a stock 1 mg/ml solution, and sections were visualized using an Olympus FluoView™ FV1000 Confocal microscope.

[8] = listed as siRNA targeting claudin-5

claudin-5 siRNA: siRNA, sense CGUUGGAAAUUCUGGGUCUUU (SEQ ID NO: 1), antisense AGACCCAGAAUUUCCAACGUU (SEQ ID NO: 2) (listed as RNA, chemistry not given here)
claudin-5 mRNA level, RT-PCR, brain ([1]; 1 week post-injection, vs non-targeting control): not significantly changed | claudin-5 mRNA levels suppressed with respect to the non-targeting control siRNA ([1]; 24 hours post-injection): up to 95% | claudin-5 mRNA level, RT-PCR, brain ([1]; 24 hours post-injection, vs control groups): significantly decreased | claudin-5 mRNA level, RT-PCR, brain ([1]; 24 hours post-injection, vs control groups, listed as siRNA targeting claudin-5): significant decrease | claudin-5 mRNA level, RT-PCR, brain ([1]; 48 hours post-injection, vs control groups): showing suppression | claudin-5 mRNA level, RT-PCR, brain ([1]; 72 hours post-injection, vs non-targeting control): not significantly changed | rate of water diffusion in the brain, MRI [2]: no changes in diffusion | rate of water diffusion in the brain, MRI [2, 8]: no change in the rate of water diffusion | claudin-5 expression in retinal flatmounts, immunohistochemistry ([3]; 24, 48 and 72 hours post injection, vs non-targeting siRNA): decreased localisation of claudin-5 at the periphery of endothelial cells | claudin-5 expression in retinal protein lysates, Western blot ([3]; 48 hours post injection): decreased expression | endothelial cell morphology in liver, lung, kidney and heart [4]: appeared similar at all time points and in all major organs | Gd-DTPA contrasting in the eye / iBRB integrity, MRI [5]: Strong contrasting | Gd-DTPA contrasting in the eye / iBRB integrity, MRI [5, 8]: iBRB was compromised | extravasation of Hoechst H33342 (562 Da) from brain microvessels ([6]; 24 hours and 48 hours post delivery): distinct staining of nuclei in surrounding neural and glial cells | extravasation of Hoechst H33342 (562 Da) from brain microvessels ([6]; 24 hours and 48 hours post delivery, listed as siRNA targeting claudin-5): extravasation of Hoechsct was observed; also recorded: crossed the BBB | extravasation of Hoechst H33342 (562 Da) from brain microvessels ([6]; 72 hours or 1 week post-injection): not evident | extravasation of FD-4 (4,400 Da) into brain parenchyma [6]: No extravasation of FD-4 | extravasation of FD-4 (4,400 Da) into brain parenchyma [6, 8]: no extravasation was evident; also recorded: failed to do so | BBB permeability to EZ-Link Sulfo-NHS-Biotin (443 Da) ([7]; 1 week post-injection): no evidence for BBB compromise; also recorded: failed to deposit in the parenchyma; also recorded: did not allow for the passage; also recorded: no longer crossed the BBB | BBB permeability to EZ-Link Sulfo-NHS-Biotin (443 Da) ([7]; 1 week post-injection, listed as siRNA targeting claudin-5): did not deposit in the parenchyma | BBB permeability to EZ-Link Sulfo-NHS-Biotin (443 Da) ([7]; 24 hours post-injection, perfusion 5 minutes, listed as siRNA targeting claudin-5): diffuse and outside of the microvessels; also recorded: increase in permeability; also recorded: infiltration of the molecule into the parenchyma of the brain | BBB permeability to EZ-Link Sulfo-NHS-Biotin (443 Da) ([7]; 48 hours post-injection): abundant in the brain parenchyma | BBB permeability to EZ-Link Sulfo-NHS-Biotin (443 Da) ([7]; 48 hours post-injection, listed as siRNA targeting claudin-5): very distinct; also recorded: detected in abundance | BBB permeability to EZ-Link Sulfo-NHS-Biotin (443 Da) ([7]; 72 hours post-delivery): permeability was still evident; also recorded: still evidenced | BBB permeability to EZ-Link Sulfo-NHS-Biotin (443 Da) ([7]; 72 hours post-delivery, listed as siRNA targeting claudin-5): significant compromise in barrier function; also recorded: crossed the BBB
